What is called IC50 is the midpoint of a concentration-inhibition curve.

Results on 4 compounds are retold here after patent US7115648B2, “Indole-amide derivatives and their use as glycogen phosphorylase inhibitors” (AstraZeneca AB, priority 2002, dated 2006).

In one series the test system is conscious dogs. Conditions: cited from earlier work.
In a further series the test system is db/db and ob/ob mice. Conditions: dose related; cited from earlier work.
Another series relates to hepatocytes. Conditions: cited from earlier work.
The target of series [1] is T1, Human recombinant liver glycogen phosphorylase a (hrl GPa) (Homo sapiens, UniProt P06737).
T1 sequence (P06737 1-847): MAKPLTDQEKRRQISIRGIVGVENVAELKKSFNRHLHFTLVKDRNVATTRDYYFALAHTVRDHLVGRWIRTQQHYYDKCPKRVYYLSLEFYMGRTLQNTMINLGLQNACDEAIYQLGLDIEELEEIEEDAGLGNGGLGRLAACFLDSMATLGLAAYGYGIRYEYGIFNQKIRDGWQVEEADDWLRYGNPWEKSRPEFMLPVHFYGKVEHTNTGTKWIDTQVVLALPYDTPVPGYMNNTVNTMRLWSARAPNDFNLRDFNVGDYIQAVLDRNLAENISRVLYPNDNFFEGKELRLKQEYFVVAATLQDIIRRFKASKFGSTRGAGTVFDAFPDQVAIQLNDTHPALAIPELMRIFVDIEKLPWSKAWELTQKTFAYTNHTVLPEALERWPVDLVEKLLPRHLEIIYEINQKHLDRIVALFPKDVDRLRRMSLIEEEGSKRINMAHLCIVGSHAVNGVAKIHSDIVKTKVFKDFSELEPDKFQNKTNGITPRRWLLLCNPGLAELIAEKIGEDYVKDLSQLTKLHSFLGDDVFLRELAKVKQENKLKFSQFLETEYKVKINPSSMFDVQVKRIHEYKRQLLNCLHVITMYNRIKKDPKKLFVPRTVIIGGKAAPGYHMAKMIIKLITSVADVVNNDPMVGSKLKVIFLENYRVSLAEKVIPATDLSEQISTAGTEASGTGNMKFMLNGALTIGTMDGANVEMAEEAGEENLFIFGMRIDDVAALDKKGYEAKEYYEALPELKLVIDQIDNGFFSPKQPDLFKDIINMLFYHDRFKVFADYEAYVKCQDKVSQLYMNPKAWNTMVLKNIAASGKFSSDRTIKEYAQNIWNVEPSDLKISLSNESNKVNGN
Put plainly: Glycogen degradation multienzyme coupled assay (NADH fluorescence). Conditions: glycogen degradation direction. Format: biochemical. The procedure:
The activity of the compounds is alternatively determined by measuring the inhibitory effect of the compounds on glycogen degradation, the production of glucose-1-phosphate from glycogen is monitored by the multienzyme coupled assay, as described in EP 0 846 464 A2, general method of Pesce et al (Pesce, M A, Bodourian, S H, Harris, R C, and Nicholson, J F (1977) Clinical Chemistry 23, […]). The reactions were in 384 well microplate format in a volume of 50 μl. The change in fluorescence due to the conversion of the co-factor NAD to NADH is measured at 340 nm excitation, 465 nm emission in a Tecan Ultra Multifunctional Microplate Reader. The reaction is in 50 mM HEPES, 3.5 mM KH2PO4, 2.5 mM MgCl2, 2.5 mM ethylene glycol-bis(b-aminoethyl ether) N,N,N′,N′-tetraacetic acid, 100 mM KCl, 8 mM D-(+)-glucose pH7.2, containing 0.5 mM dithiothreitol, the assay buffer solution. Human recombinant liver glycogen phosphorylase a (hrl GPa) 20 nM is pre-incubated in assay buffer solution with 6.25 mM NAD, 1.25 mg type III glycogen at 1.25 mg ml^−1 the reagent buffer, for 30 minutes. […] The non-inhibited activity of GPa is measured in the presence of 10 μl 5% DMSO in assay buffer solution and maximum inhibition measured in the presence of 5 mgs ml^−1 N-ethylmaleimide. […] Relative Fluoresence Units (RFUs) are measured at 340 nm excitation, 465 nm emission. […]

For the compound `CCN1C(C)=C(C(=O)OC(C)C)C(c2ccccc2Cl)C2=C1COC2=O` (stereo not drawn) [Bay R 3401], in the series with conscious dogs, the “arterial plasma glucose following a glucagon challenge” value is recorded as “reduced significantly” and the “hepatic glucose output following a glucagon challenge” value is given as “reduced significantly”.

As to `CN(C)C(=O)[C@H](O)[C@H](Cc1ccccc1)NC(=O)c1cc2cc(Cl)ccc2[nH]1` [CP91149], the plasma glucose concentration entry with db/db and ob/ob mice is recorded as “reduced, in a dose related manner”. In addition, in the series on hepatocytes, the glucagon stimulated glycogenolysis result is given as “reduce” and the “glucose output in hepatocytes” value is given as “reduce”.

`O=C(N[C@@H](Cc1ccc(F)cc1)C(=O)N1CCC(O)CC1)c1cc2cc(Cl)ccc2[nH]1` [CP320626]: in the series on db/db and ob/ob mice, the plasma glucose concentration entry is recorded as “reduced, in a dose related manner”. Besides, in the series with hepatocytes, the glucagon stimulated glycogenolysis entry is reported as “reduce” and the “glucose output in hepatocytes” value is on record as “reduce”.

Take `O=C(NCC(=O)N(CCO)c1ccccc1)c1cc2cc(Cl)ccc2[nH]1` [Example 1, 5-Chloro-N-{2-[(2-hydroxyethyl)phenylamino]-2-oxoethyl}-1H-indole-2-carboxamide]: the 50% inhibitory concentration (IC50) in series [1] was determined as 550 nM.
